The target of the assay is T1, Potassium voltage-gated channel subfamily KQT member 3 (Homo sapiens) (UniProt O43525).
T1 sequence (whole entry): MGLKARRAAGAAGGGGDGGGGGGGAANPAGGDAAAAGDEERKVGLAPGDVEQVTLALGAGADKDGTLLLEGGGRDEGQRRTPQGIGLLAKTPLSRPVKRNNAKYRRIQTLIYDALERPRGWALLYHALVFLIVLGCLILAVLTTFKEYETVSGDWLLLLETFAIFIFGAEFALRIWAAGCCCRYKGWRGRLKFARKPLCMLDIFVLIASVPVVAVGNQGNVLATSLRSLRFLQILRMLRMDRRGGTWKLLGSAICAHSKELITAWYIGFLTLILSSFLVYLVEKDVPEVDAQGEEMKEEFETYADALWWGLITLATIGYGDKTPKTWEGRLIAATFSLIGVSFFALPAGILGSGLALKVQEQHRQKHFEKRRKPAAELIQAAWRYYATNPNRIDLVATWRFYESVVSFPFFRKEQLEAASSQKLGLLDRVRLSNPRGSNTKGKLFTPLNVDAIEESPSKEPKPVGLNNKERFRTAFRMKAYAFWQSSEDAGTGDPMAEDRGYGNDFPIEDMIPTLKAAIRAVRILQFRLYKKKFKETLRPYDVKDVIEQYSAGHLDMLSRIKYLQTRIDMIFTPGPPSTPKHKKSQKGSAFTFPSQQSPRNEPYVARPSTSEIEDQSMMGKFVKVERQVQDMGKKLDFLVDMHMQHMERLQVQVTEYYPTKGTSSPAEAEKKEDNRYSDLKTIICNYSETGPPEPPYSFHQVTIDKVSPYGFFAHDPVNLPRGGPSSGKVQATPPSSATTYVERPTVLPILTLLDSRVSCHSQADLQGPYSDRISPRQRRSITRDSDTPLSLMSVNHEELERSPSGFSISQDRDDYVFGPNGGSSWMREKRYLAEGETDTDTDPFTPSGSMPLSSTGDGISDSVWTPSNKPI
Kind of assay: Inhibition of KCNQ3 (unknown origin) at 1 uM.

Active and inactive are the calls of the source. The calls are words filed in the database; no cut-off is given here.

Turning to `CC[C@H](C)[C@H](NC(=O)[C@H](CCCNC(=N)N)NC(=O)[C@H](CCCNC(=N)N)NC(=O)[C@H](Cc1ccc(O)cc1)NC(=O)[C@H](CCCNC(=N)N)NC(=O)[C@H](CCCNC(=N)N)NC(=O)[C@H](CCCNC(=N)N)NC(=O)[C@H](CCCNC(=N)N)NC(=O)[C@H](CC(=O)O)NC(=O)[C@H](Cc1ccc(O)cc1)NC(=O)[C@@H]1CCCN1C(=O)[C@H](CO)NC(=O)[C@H](CCCNC(=N)N)NC(=O)[C@H](Cc1ccc(O)cc1)NC(=O)[C@H](CCCNC(=N)N)NC(=O)CN)C(=O)N[C@H](C(=O)N[C@@H](CC(=O)O)C(N)=O)[C@@H](C)O`, the inhibition entry was “inactive”.

(Values after ChEMBL document CHEMBL5537181 (J Med Chem, 2024).)
